# Patent publication US10253002B2, “Compounds and methods of treating infections” (Neoculi Pty Ltd., priority 2013, dated 2019)
# How the values were obtained:
# Escherichia coli = assay: Broth microdilution MIC, Example 7 (NCL812 and analogues); format: cell-based; settings: E. coli; 24 hours; duplicate lines per compound
# [1] = Release from Formulation B, Franz diffusion cells; format: physicochemical; settings: absolute ethanol receptor, 32±1° C., up to 24 hours
# Description: Franz diffusion cells were utilized to quantify the release rate of NCL 812 and NCL099 from its topical formulations. Five milliliters of absolute ethanol, which was chosen as the desired release medium, was loaded into the receptor chamber. Temperature of the receptor fluid was kept constant, at 32±1° C. using a water jacket. Acetyl cellulose membranes, with pore size of 0.45 μm (Pall Corporation) was selected and placed between donor and receptor chamber. Followed by that, a number of test samples (Formulation B) was loaded into the donor chamber. One milliliter of receptor fluid was collected at regular time intervals of 0.25, 0.50, 0.75, 1, 2, 3, 4, 5, 6, 7, 8 and 24 hours through the sampling port. One milliliter of fresh absolute ethanol was immediately returned to the receptor chamber. UV-HPLC was utilized to analyse the content of the receptor fluids attained.
# MRSA [2] = assay: Broth microdilution MIC, Example 7 (NCL812 and analogues); format: cell-based, Staphylococcus aureus
# Summary of the method: (§1)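 MICs in μg/ml were read as growth inhibition by eye, checked at 600 nm absorbance against drug-free wells, following CLSI broth microdilution. Strains: two MRSA, two VRE; duplicates, repeated once more when results diverged beyond one dilution step.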
# VRE = assay: as above; format: cell-based, Enterococcus spp.
# Summary of the method: as §1
# [3] = Bioassay ranking of the analogues tested; settings: M + R (MRSA and VRE combined)
# Staphylococcus aureus = assay: Mouse skin wound infection model, topical treatment; format: in vivo, mice; settings: 14 treatments
# Text: Preliminary studies prior to the conduct of the current study established a new method of skin infection arising from a detailed study of the models mentioned above. Briefly, study mice are anaesthetised, a patch of dorsal skin is clipped to reveal the skin and a circular area of skin is removed with a hand held punch, leaving a wound on the dorsum with a central cavity. The wound is infected with a known number of the challenge organism. Approximately four to six hours after infection, the wound is either treated topically with a vehicle formulation or an active formulation. The infected skin wound is retreated every 12 hours for a total of 14 treatments. Mice are humanely euthanased, the area of the original infected wound is dissected and removed and its bacterial content quantified by standard microbiologic tests. In this way, the change in bacterial concentration due to treatment with the active formulation can be readily determined by examining the reduction in bacterial burden compared with the vehicle control. Fresh cultures of bacteria (Staphylococcus aureus) were grown on Sheep Blood Agar at 37° C. for 16-18 hours. A few typical colonies were selected and suspended in 10 ml of Tryptic Soy Broth and incubated overnight in a shaking incubator (240 rpm) at 37° C. The overnight suspension was vortexed and diluted (1:100) in fresh Tryptic soy broth (100 μl [0.1 ml] in 9.9 ml broth). The fresh suspension was incubated for 3 hours in a shaking incubator (as above) in order to obtain mid-logarithmic phase bacteria. Bacteria were pelleted through centrifugation at 7,500 rpm for 10 mins. Broth supernatant was removed and bacteria suspended in 10 ml Phosphate Buffered Saline (PBS). These steps were repeated a further two times. The density of the suspension was checked by measuring absorbance at 600 nm, using a spectrophotometer with saline as a blank, to confirm the target density at a reading of approximately 0.100, consistent with a bacterial density of 2.5×10^7 CFU/ml. The suspension was placed into a rack placed into a lockable transport box with an ice brick to maintain refrigeration during transport, followed by storage in cool room upon arrival at the mouse skin infection laboratory. Final suspension was mixed thoroughly before inoculating the skin wounds created in mice. […] Eyes of each anaesthetised mouse were covered with veterinary eye lubricant in order to prevent corneal dehydration. Each mouse removed from induction chamber and placed onto surgical area, in front of individual aesthetic nose cone. While under anaesthesia each mouse was monitored for assessment of depth of anaesthesia (response to pain, blink reflex, skeletal muscle tone) and respiratory and cardiac function. Back skin hair was shaved from surgical area with mechanical clippers. […] Once the iodine solution was dry, a subcutaneous injection of the nonsteroidal anti-inflammatory agent meloxicam was administered. Dorsal skin was pinched gently to allow creation of a circular full-thickness wound using ear punch/biopsy punch. […] Once the bacterial suspension was dry, mice were placed into individual recovery boxes labelled with the mouse number. The time of inoculation was recorded. Initial body weights of each mouse were recorded on the appropriate score sheet. Mice recovered to full consciousness within 5 minutes. Recovered mice were returned to individual housing and monitored hourly for post-surgical or anaesthetic complications. […] Each ointment container was weighted prior to administration and the weight recorded. Each mouse was carefully restrained. […] The weight of the ointment container post-administration was recorded. […] At the end of the 7 day skin wound assessment period, all test mice were euthanased prior to wound collection for post mortem examination. The skin wound was dissected from the dorsum of each mouse. The sample was placed in a sample tube and weighed before 1 ml PBS and sterile tissue homogenisation beads were added. […]
# Pseudomonas aeruginosa = assay: Broth microdilution MIC, Example 7 (NCL812 and analogues); format: cell-based; settings: P. aeruginosa; 24 hours; duplicate lines per compound
# MRSA [4] = settings: within an hour of exposure to a concentration equivalent to the Cmax; McKay et al. (2009); cited from earlier work
# S. aureus ATCC 29213 [5] = assay: MIC testing (CLSI M07-A8, MHB II), Example 2; format: cell-based; settings: ATCC29213, Staphylococcus aureus ATCC 29213
# Description: The medium employed for the MIC assay was Mueller Hinton II Broth (MHB II-Becton Dickinson, Sparks, Md.; Cat No 212322; Lot 9044411). S. aureus ATCC 29213 served as the quality control strain, and linezolid was utilized as the quality control antibiotic to validate the assay.
# [6] = system: protein synthesis in S. aureus ATCC 29213; assay: Macromolecular synthesis assay: protein synthesis ([3H] leucine); format: cell-based, Staphylococcus aureus; settings: 8 fold the MIC (2 μg/mL)
# Description: Cells were grown at 35° C. overnight on Trypticase Soy agar. A colony from the plate was used to inoculate 10 ml of Mueller Hinton broth II (MHBII), and the culture was grown to early exponential growth phase (OD600==0.2 to 0.3) while incubating in a shaker at 35° C. and 200 rpm.
# When cells reached early exponential phase, 100 μL of culture was added to triplicate wells containing various concentrations of test compound or control antibiotics (5 μL) at 20× the final concentration in 100% DMSO. A 5% DMSO treated culture served as the “no drug” control for all experiments. Cells were added in MHBII at 105% to account for the volume of drug added to each reaction or in M9 minimal medium for protein synthesis reactions. Following 15 min incubation at room temperature, either [^3H] thymidine (DNA synthesis), [^3H] uridine (RNA synthesis) or [^3H] leucine (protein synthesis) was added at 0.5-1.0 μCi per reaction, depending on the experiment. Reactions were allowed to proceed at room temperature for 15-30 min and then stopped by adding 12 μL of cold 5% trichloroacetic acid (TCA) or 5% TCA/2% casamino acids (protein synthesis only). […] After washing three times with 5 ml of cold 5% TCA, the filters were rinsed two times with 5 mL 100% ethanol, allowed to dry, and then counted using a Beckman LS3801 liquid scintillation counter.
# S. aureus ATCC 29213 [7] = settings: Staphylococcus aureus ATCC 29213; CLSI-established; cited from earlier work
smiles,measurement,setting,value
CC(C)(C)c1ccc(C=NNC(=N)NN=Cc2ccc(C(C)(C)C)cc2)cc1.Cl [NCL099],"MIC (μg/ml) at 24 hours, E. coli",Escherichia coli,>128 µg/mL
same,release profile from Formulation B,[1],acceptable release profile
same,activity against MRSA among analogues,"MRSA [2]; MIC testing, two MRSA strains",greatest activity
same,"MIC (μg/ml) at 24 hours, MRSA 1","MRSA [2]; MRSA 1, 24 hours, duplicate lines per compound",8 µg/mL
same,"MIC (μg/ml) at 24 hours, MRSA 2","MRSA [2]; MRSA 2, 24 hours, duplicate lines per compound",4 µg/mL
same,MRSA,"MRSA [2]; bioassay ranking, MRSA",6 µg/mL
same,activity against VRE among analogues,"VRE; MIC testing, two VRE strains",greatest activity
same,"MIC (μg/ml) at 24 hours, VRE 1","VRE; VRE 1, 24 hours, duplicate lines per compound",8 µg/mL
same,"MIC (μg/ml) at 24 hours, VRE 2","VRE; VRE 2, 24 hours, duplicate lines per compound",8 µg/mL
same,VRE,"VRE; bioassay ranking, VRE",8 µg/mL
same,M + R,[3],7 µg/mL
same,"mean colony count per g of tissue, log10","Staphylococcus aureus; mice, Formulation B 20 mg/g topically every 12 hours, vehicle 6.77",3.12 log10
same,mean colony count per g of tissue,"Staphylococcus aureus; mice, Formulation B 20 mg/g topically every 12 hours, vehicle 5,888,436","1,318"
same,% reduction (of colony forming units per gram of tissue versus vehicle),"Staphylococcus aureus; mouse skin wound infected with Staphylococcus aureus, topical ointment (Formulation B, 20 mg/g) every 12 hours, end of 7 day period, relative to vehicle group",99.98%
same,Log10 (CFU/g): colony forming units per gram of tissue,"Staphylococcus aureus; mouse skin wound infected with Staphylococcus aureus, topical ointment (Formulation B, 20 mg/g) every 12 hours, wound tissue at end of 7 day period, group mean",3.12 Log10 (CFU/g)
same,"MIC (μg/ml) at 24 hours, P. aeruginosa",Pseudomonas aeruginosa,>128 µg/mL
CN[C@H](CC(C)C)C(=O)N[C@H]1C(=O)N[C@@H](CC(N)=O)C(=O)N[C@H]2C(=O)N[C@H]3C(=O)N[C@H](C(=O)N[C@H](C(=O)O)c4cc(O)cc(O)c4-c4cc3ccc4O)[C@H](O[C@H]3C[C@](C)(N)[C@@H](O)[C@H](C)O3)c3ccc(c(Cl)c3)Oc3cc2cc(c3O[C@@H]2O[C@H](CO)[C@@H](O)[C@H](O)[C@H]2O[C@H]2C[C@](C)(NCc3ccc(-c4ccc(Cl)cc4)cc3)[C@@H](O)[C@H](C)O2)Oc2ccc(cc2Cl)[C@H]1O [oritavancin],reduction in viable count,MRSA [4],3 log10
CC(=O)NC[C@H]1CN(c2ccc(N3CCOCC3)c(F)c2)C(=O)O1 [Linezolid],MIC,S. aureus ATCC 29213 [5],4 µg/mL
same,inhibition of protein synthesis,[6],approximately 61%
same,Quality control range for linezolid (MIC),S. aureus ATCC 29213 [7],1 to 4 µg/mL
